In experiment [1] the test system is Plasmodium falciparum. The experiment can be described thus: microbe, parasite or virus in culture.
Description: In vitro antimalarial activity against Plasmodium falciparum (Ghana)
Experiment [2] deals with Plasmodium falciparum. The experiment can be described thus: microbe, parasite or virus in culture. This is another data set of the same source.
Description: In vitro antimalarial activity against Plasmodium falciparum resistant W-2

Broadly, the IC50 is the concentration that gives 50% inhibition. With `C[C@H]1[C@@H](CCNCc2ccccn2)O[C@@H]2O[C@]3(C)CC[C@H]4[C@H](C)CC[C@@H]1[C@@]24OO3`, the IC50 in experiment [1] and in experiment [2] was 2 nM each time. As to `C[C@H]1[C@@H](CCOC(=O)C2CCCCC2C(=O)O)O[C@@H]2O[C@]3(C)CC[C@H]4[C@H](C)CC[C@@H]1[C@@]24OO3` (some centres not stated), the figures for the IC50 in experiment [1] and in experiment [2] were 0.5 nM and 0.4 nM, respectively. Regarding `C[C@H]1[C@@H](CCOC(=O)C2CC=CCC2C(=O)O)O[C@@H]2O[C@]3(C)CC[C@H]4[C@H](C)CC[C@@H]1[C@@]24OO3` (some centres not stated), the half-inhibitory concentration (IC50) in experiment [1] was 0.5 nM; in experiment [2] it was 0.4 nM. `C[C@H]1[C@@H](CCNCCc2ccccc2)O[C@@H]2O[C@]3(C)CC[C@H]4[C@H](C)CC[C@@H]1[C@@]24OO3`: the IC50 in experiment [1] came to 11 nM; in experiment [2] it was 20 nM.

Consider `C[C@H]1[C@@H](CCNCc2cccnc2)O[C@@H]2O[C@]3(C)CC[C@H]4[C@H](C)CC[C@@H]1[C@@]24OO3`, for which the IC50 in experiment [1] and in experiment [2] was 1 nM throughout. On to `C[C@H]1[C@@H](CCO)O[C@@H]2OC3(C)CC[C@H]4[C@H](C)CC[C@@H]1[C@@]24OO3` (single isomer, unassigned), for which the 50% inhibitory concentration (IC50) in experiment [1] and in experiment [2] was 1 nM each time. On to `CCCNCC[C@H]1O[C@@H]2O[C@]3(C)CC[C@H]4[C@H](C)CC[C@@H]([C@H]1C)[C@@]24OO3`, for which the values for the IC50 in experiment [1] and in experiment [2] were 1 nM and 3 nM, respectively.

Consider `C[C@H]1[C@@H](CCOC(=O)CCC(=O)O)O[C@@H]2O[C@]3(C)CC[C@H]4[C@H](C)CC[C@@H]1[C@@]24OO3`, for which the IC50 turned out to be 0.5 nM in experiment [1] and 0.4 nM in experiment [2]. On to `C[C@@H]1CC[C@H]2[C@@H](C)C(=O)O[C@@H]3O[C@@]4(C)CC[C@@H]1[C@]32OO4` [ARTEMISININ], for which 9 nM corresponded to half-maximal inhibition in experiment [1] (IC50). That is a single-digit nanomolar value.

For the origin of these results see ChEMBL document CHEMBL1145256, “Synthesis of novel 10-deoxoartemisinins” (Bioorg Med Chem Lett, 2005).
